pIC50: −log10 of the molar value. Where two headings read alike, the source gives them in different places.
How the values were obtained:
[1] = tested on: SU-DHL-10; assay: CellTiter-Glo cell viability, SU-DHL-10; format: cell-based; conditions: Homo sapiens, SU-DHL10
Description: (§1) Human DLBCL cell lines SU-DHL-4 (#ACC 495) and SU-DHL-10 (#ACC 576) were obtained from DSMZ (German Collection of Microorganisms and Cell Cultures). The supplier used PCR-based DNA profiling of polymorphic short tandem repeats for authentication and Mycoplasma testing prior to shipment. Cells were cultured in suspension at 37°C in a humidified atmosphere containing 5% CO2. CDK9 inhibitors KB-0742 (MedChemExpress, #HY-137478A), enitociclib, and atuveciclib ([…] Pharma, Inc.) were used. A subset of 35 lymphoma cell lines is from a 500-cell line panel where the effect of enitociclib on cell viability using CellTiter-Glo luminescent cell viability was determined (OmniScreen, CrownBioscience). Genetic status and gene expression level for MYC and MCL1 was obtained from CrownBioscience.

[2] = Fraction unbound in cell media; format: in vitro ADME
[3] = tested on: cleaved PARP in SU-DHL-10 tumors; assay: Pharmacodynamics in SU-DHL-10 xenograft tumors, cleaved PARP; format: in vivo, C.B-17 SCID mice; conditions: single dose
Description: (§2) The levels of p-Ser2, p-Ser5 and total RNA polymerase II, Myc, Mcl-1, cleaved PARP (cPARP), and cleaved Caspase 3 were assessed by Western blotting and quantified near-infrared detection and background corrected quantification of fluorescence intensity on an Odyssey Imaging System with IRDye secondary antibodies (LI-COR Biosciences). For quantification, the protein levels were normalized to GAPDH or HSP90, expressed as a ratio to DMSO or vehicle control at matched timepoints. The normalized relative protein levels of p-Ser2 were used for a treatment effect comparison by performing an ANOVA using PROC MIXED in SAS. The ANOVA model included treatment, timepoints and their interactions as fixed effects. The least square means (LSM), differences between the LSMs and associated P values were generated. The following primary antibodies were used: Rpb1 NTD (D8L4Y) rabbit antibody [Cell Signaling Technology (CST), #14958], anti-RNA polymerase II subunit B1 (phospho CTD Ser-2, clone 3E10) rat antibody (Merck, 04-1571-I), recombinant anti-c-MYC rabbit antibody (Y69; Abcam, #ab32072), MCL1 (D5V5L) rabbit antibody (CST, #39224), cleaved-PARP (Asp214) (E2T4K) mouse antibody (CST, #32563), HSP90 (C45G5) rabbit antibody (CST, #4877), and GAPDH mouse antibody (Zytomed Systems, #ZYT-RGM2-6C5). […]

[4] = Body weight of treated xenograft mice; format: in vivo, C.B-17 SCID mice; conditions: 15 mg/kg i.v. once weekly
Description: A total of 10 × 10^6 SU-DHL-10 cells were inoculated subcutaneously into 6–8 weeks old female C.B-17 SCID mice (Iffa Credo, Brussels). The mice were randomized to treatment groups at a tumor volume of 63–104 mm^3 and treated (intravenously, once weekly) with 10 mg/kg enitociclib (60% PEG400, 10% ethanol, water), 15 mg/kg enitociclib (30% PEG400, 10% ethanol, water), or corresponding vehicle treatments. Mice were around 10–12 weeks of age at the start of study. All animal experiments were performed under the national animal welfare laws of Germany and approved by the local authorities.

[5] = tested on: Mcl-1 protein in SU-DHL-10 tumors; assay: Pharmacodynamics in SU-DHL-10 xenograft tumors, Mcl-1 protein; format: in vivo, C.B-17 SCID mice; conditions: single dose; within 4 to 8 hours postdose
Description: as §2

[6] = Clinical pharmacokinetics, plasma LC/MS-MS (NCT02635672); format: in vivo, human; conditions: subject 3, dose lowered from 30 to 22.5 mg, not included in average
[7] = tested on: DH-DLBCL and other MYC+ NHL; conditions: 30 mg i.v. once weekly, phase I; cited from earlier work
[8] = tested on: panel of 35 human lymphoma cell lines; assay: CellTiter-Glo cell viability, lymphoma cell line panel (OmniScreen); format: cell-based
Description: as §1

[9] = tested on: p-Ser5 RNA polymerase II in SU-DHL-10 tumors; assay: Pharmacodynamics in SU-DHL-10 xenograft tumors, p-Ser5; format: in vivo, C.B-17 SCID mice; conditions: single dose, all doses (5, 10, 15 mg/kg)
Description: as §2

Compound: COc1cc(F)ccc1-c1cc(Nc2cc(CS(C)(=N)=O)ccn2)ncc1F (centres unmarked) [enitociclib]
- pIC50 [1]: 7.13
- fraction unbound [2]: 0.666
- cleaved PARP in tumors (in words) [3]: increase in cleaved PARP
- maximum body weight change [4]: −12.5%
- Mcl-1 protein levels in tumors (in words) [5]: robustly decreased
- Tmax ([6]; human, plasma, intravenous, 22.5 mg, read-out: Multiple dose tmax): 29 min
- Multiple dose AUC0-t [6]: 1,670^b µg^ah/L
- complete metabolic remission (CR), patients with DH-DLBCL [7]: 2 of 7
- pIC50 ([8]; Homo sapiens, lymphoma cell lines, media fu = 66.6%, read-out: mean unbound IC50 for cytotoxicity): ~7.17
- pIC50 ([8]; range over panel of 35 human lymphoma cell lines, read-out: IC50 (cell cytotoxicity)): 6.82 to 7.37
- p-Ser5 reductions in tumors (in words) [9]: not robust
